The values that follow are results of earlier work, collected in patent US20100063004A1, “TOPICAL PHARMACEUTICAL COMPOSITION” (priority 2006, published 2010).

Data set [1] deals with enlargement of the prostate gland. The note with it: taken orally.
Data set [2] deals with lipid enveloped viruses such as herpes.
In the next data set the test system is herpes labialis (HSV-1). The note with it: 10% n-docosanol suspended in an aqueous system containing a non-ionic surfactant and a carrier; humans with herpes labialis (HSV-1).

`CCCCCCCCCCCCCCCCCCCCCCO` [n-docosanol]: the solubility in water entry is on record as “insoluble”. The “therapeutic effect in enlargement of the prostate gland” value in data set [1] is “therapeutically effective”. Also, the “activity in cell cultures against lipid enveloped viruses” value in data set [2] is listed as “broad activity”. In addition, the “mean healing time of lesions” value in the data set with herpes labialis (HSV-1) is reported as “shortened”.
